What all share (format): in vivo
One test concerns Phaedon cochleariae. Briefly: Phaedon cochleariae spray test. The following applies: 168 h, application rate 100 g/ha, larvae, after 7 days, read-out: efficacy. Summed up:
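Chinese cabbage leaf discs sprayed with compound formulated in solvent and water containing 1000 ppm emulsifier. Once dry, discs were populated with mustard beetle larvae. Percent kill scored after 7 days, 100% meaning all larvae dead and 0% none.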

Another test has as its system Spodoptera frugiperda. The test can be described thus: Spodoptera frugiperda spray test. The following applies: foliar, 168 h, application rate 100 g/ha, maize leaf discs, caterpillars, after 7 days, read-out: efficacy. Summed up:
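Maize leaf discs sprayed with compound formulated in solvent plus water with 1000 ppm emulsifier, dried, then infested with fall armyworm caterpillars. Mortality scored after 7 days as % efficacy (100% = all caterpillars killed, 0% = none).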

Test [1] concerns Myzus persicae. Briefly: Myzus persicae spray test. The conditions noted are these: foliar, 120 h, application rate 100 g/ha, Chinese cabbage leaf discs, after 5 days, read-out: efficacy. An outline of the steps:
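Chinese cabbage leaf discs infested with all aphid stages sprayed with compound formulated in emulsifier-containing water (1000 ppm emulsifier). Efficacy (% aphids killed; 100% = all killed) determined after 5 days.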

Test [2] has as its system Myzus persicae. The test can be described thus: Myzus persicae oral test. The conditions noted are these: 120 h, application rate 4 ppm, after 5 days, read-out: efficacy. Summed up: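 Compound formulation diluted with IPL41 insect medium (33%+15% sugar) and sealed under parafilm; mixed-population aphids feed through the membrane from a second plate. Mortality scored after 5 days as % efficacy (100% = all aphids killed, 0% = none).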

The next test deals with Lucilia cuprina. Briefly: Lucilia cuprina test. The following applies: 48 h, application rate 100 ppm, L1 larvae, kill after 2 days, read-out: efficacy. An outline of the steps:
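About 20 L1 larvae of Lucilia cuprina placed on minced horsemeat containing compound (DMSO stock diluted in water to test concentration). Kill (%) scored after 2 days; 100% = all larvae dead, 0% = none dead.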

For test [3], the system named is Ctenocephalides felis. Briefly: Ctenocephalides felis oral test. The conditions noted are these: 48 h, application rate 100 ppm in citrated cattle blood, kill after 2 days, read-out: efficacy. Summed up:
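About 20 unfed adult cat fleas fed through a parafilm membrane on citrated cattle blood containing compound (DMSO stock diluted in blood to the desired concentration). Kill (%) determined after 2 days; 100% = all fleas dead, 0% = none.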

The next test deals with Musca domestica. The test can be described thus: Musca domestica test. The following applies: application rate 100 ppm; adult houseflies, kill after 2 days. How it is done:
Solvent: dimethyl sulfoxide To produce a suitable active ingredient formulation, 10 mg of active ingredient are mixed with 0.5 ml of dimethyl sulfoxide, and the concentrate is diluted with water to the desired concentration. Vessels containing a sponge treated with sugar solution and the desired concentration of active ingredient formulation are populated with 10 adult houseflies (Musca domestica). After 2 days, the kill in % is determined. 100% means that all of the flies have been killed; 0% means that none of the flies have been killed.

The subject of test [4] is Ctenocephalides felis. Briefly: Ctenocephalides felis in vitro contact test with adult cat fleas. The following applies: application rate 5 μg/cm^2 (=500 g/ha), adult cat fleas dead or moribund after 48 h, read-out: efficacy. The procedure:
For the coating of the test tubes, 9 mg of active ingredient are first dissolved in 1 ml of acetone p.a. and then diluted to the desired concentration with acetone p.a. 250 μl of the solution are distributed homogeneously on the inner walls and the base of a 25 ml glass tube by turning and rocking on an orbital shaker (rocking rotation at 30 rpm for 2 h). With 900 ppm of active ingredient solution and internal surface area 44.7 cm^2, given homogeneous distribution, an area-based dose of 5 μg/cm^2 is achieved. After the solvent has evaporated off, the tubes are populated with 5-10 adult cat fleas (Ctenocephalides felis), sealed with a perforated plastic lid and incubated in a horizontal position at room temperature and ambient humidity. After 48 h, efficacy is determined. To this end, the tubes are stood upright and the fleas are knocked to the base of the tube. Fleas which remain motionless at the base or move in an uncoordinated manner are considered to be dead or moribund. […] 100% efficacy means that all the fleas were dead or moribund. 0% efficacy means that no fleas were harmed.

Another test deals with Boophilus microplus. Briefly: Boophilus microplus injection test. The following applies: application rate 20 μg/animal, injected; laying of fertile eggs assessed after 7 days. The procedure:
Solvent: dimethyl sulfoxide To produce a suitable active ingredient formulation, 10 mg of active ingredient are mixed with 0.5 ml of solvent and the concentrate is diluted to the desired concentration with solvent. 1 μl of the active ingredient solution is injected into the abdomen of 5 engorged adult female cattle ticks (Boophilus microplus). The animals are transferred into dishes and kept in a climate-controlled room. Efficacy is assessed after 7 days by laying of fertile eggs. Eggs which are not visibly fertile are stored in a climate-controlled cabinet until the larvae hatch after about 42 days. An efficacy of 100% means that none of the ticks has laid any fertile eggs; 0% means that all the eggs are fertile.

Another test has as its system Tetranychus urticae. Briefly: Tetranychus urticae spray test, OP-resistant. The conditions noted are these: foliar, 144 h, bean leaf discs, after 6 days, read-out: efficacy. The procedure: [table] To produce a suitable active ingredient formulation, 1 part by weight of active ingredient is dissolved with the specified parts by weight of solvent and made up to the desired concentration with water containing an emulsifier concentration of 1000 ppm. To produce further test concentrations, the formulation is diluted with emulsifier-containing water. Discs of bean leaves (Phaseolus vulgaris) infested with all stages of the greenhouse red spider mite (Tetranychus urticae) are sprayed with an active ingredient formulation of the desired concentration. After 6 days, the efficacy in % is determined. 100% means that all the spider mites have been killed; 0% means that no spider mites have been killed.

With `CCS(=O)(=O)c1c(-c2nc3cc(C(F)(F)F)ncc3n2C)nc(-c2ccc(Cl)cc2)n1C` [Example I-005], the results for the pest or weed control at 100 g/ha with Phaedon cochleariae, in the test with Spodoptera frugiperda and with Myzus persicae [1] were 100%, 100% and 90%, respectively. Besides, the pest or weed control at 4 ppm with Myzus persicae [2] was 100%. Besides, the pest or weed control at 100 ppm in the test on Lucilia cuprina and in the test on Ctenocephalides felis [3] was 100% in each case. Further, in the test with Musca domestica, the efficacy is 100%. Moreover, the pest or weed control at 5 µg/cm2, 500 g/ha in the test with Ctenocephalides felis [4] is 100%.
Consider `CCn1c(-c2ccccc2)nc(-c2nc3cc(C(F)(F)F)ncc3n2C)c1S(=O)(=O)CC` [Example I-009], for which the pest or weed control at 100 g/ha in the test on Myzus persicae [1] is 90%. In the test with Myzus persicae [2], the pest or weed control at 4 ppm was found to be 100%. For the same compound, the pest or weed control at 100 ppm in the test with Lucilia cuprina was found to be 100%; in the test with Ctenocephalides felis [3], 95%. This compound also gave an efficacy in the test on Musca domestica of 80%. For the same compound, in the test on Ctenocephalides felis [4], the pest or weed control at 5 µg/cm2, 500 g/ha stood at 100%.
Turning to `CCS(=O)(=O)c1c(-c2nc3cc(C(F)(F)F)ncc3n2C)nc(-c2cccc(Cl)n2)n1C` [Example I-014, 2-[2-(6-Chloropyridin-2-yl)-5-(ethylsulfonyl)-1-methyl-1H-imidazol-4-yl]-3-methyl-6-(trifluoromethyl)-3H-imidazo[4,5-c]pyridine], the pest or weed control at 100 g/ha in the test on Phaedon cochleariae, with Spodoptera frugiperda and in the test on Myzus persicae [1] was 100% throughout. For the same compound, the pest or weed control at 4 ppm with Myzus persicae [2] worked out at 100%. The pest or weed control at 100 ppm in the test with Lucilia cuprina and in the test with Ctenocephalides felis [3] was 100% each time. In addition, the efficacy with Musca domestica stood at 80%. Further, the pest or weed control at 5 µg/cm2, 500 g/ha with Ctenocephalides felis [4] worked out at 100%.
In the case of `CCS(=O)(=O)c1c(-c2nc3cc(C(F)(F)F)ncc3n2C)nc(-c2cccnc2)n1C` [Example I-016], in the test on Boophilus microplus, the efficacy amounted to 90%. Also, the pest or weed control at 100 g/ha in the test with Myzus persicae [1] was found to be 100%. Further, the pest or weed control at 4 ppm in the test on Myzus persicae [2] stood at 100%. Further, the pest or weed control at 100 ppm in the test on Lucilia cuprina came out at 100%.
On to `CCS(=O)(=O)c1c(-c2nc3cc(C(F)(F)F)ncc3n2C)nc(-c2cncc(F)c2)n1C` [Example I-018], for which the pest or weed control at 100 g/ha turned out to be 100% in the test with Phaedon cochleariae, 83% with Spodoptera frugiperda and 100% with Myzus persicae [1]. In addition, in the test with Myzus persicae [2], the pest or weed control at 4 ppm came out at 100%. For the same compound, the pest or weed control at 100 ppm with Lucilia cuprina and in the test with Ctenocephalides felis [3] was 100% in each case. The compound further displayed an efficacy with Musca domestica of 80%. Moreover, the pest or weed control at 5 µg/cm2, 500 g/ha in the test on Ctenocephalides felis [4] came to 100%.
Consider `CCS(=O)(=O)c1c(-c2nc3cc(C(F)(F)F)ncc3n2C)nc(-c2ccc(F)nc2)n1C` [Example I-019, 2-[5-(Ethylsulfonyl)-2-(6-fluoropyridin-3-yl)-1-methyl-1H-imidazol-4-yl]-3-methyl-6-(trifluoromethyl)-3H-imidazo[4,5-c]pyridine], for which the pest or weed control at 100 g/ha in the test on Phaedon cochleariae, in the test on Spodoptera frugiperda and in the test on Myzus persicae [1] was 100% throughout. In addition, in the test on Myzus persicae [2], the pest or weed control at 4 ppm was 100%. Besides, the pest or weed control at 100 ppm in the test on Lucilia cuprina is 100%; with Ctenocephalides felis [3] it was 95%. This compound returned an efficacy in the test on Musca domestica of 100%. In addition, in the test on Ctenocephalides felis [4], the pest or weed control at 5 µg/cm2, 500 g/ha was 100%.
As for `CCNC(=O)c1nc(-c2nc3cc(C(F)(F)F)ncc3n2C)c(S(=O)(=O)CC)n1C` [Example I-041], the efficacy in the test with Boophilus microplus is given as 100%. Moreover, the results for the pest or weed control at 100 g/ha in the test with Phaedon cochleariae and in the test on Myzus persicae [1] were 100% and 90%, respectively. Moreover, the pest or weed control at 4 ppm in the test on Myzus persicae [2] was 100%.
Take `CCS(=O)(=O)c1c(-c2nc3cc(C(F)(F)F)ncc3n2C)nc(-c2ccn[nH]2)n1C` [Example I-049]: the pest or weed control at 100 g/ha in the test on Phaedon cochleariae was found to be 100%; in the test on Myzus persicae [1] it was 90%; in the test on Tetranychus urticae (application rate 100 g/ha), 90%. Further, the pest or weed control at 4 ppm in the test on Myzus persicae [2] is 100%. The results for the pest or weed control at 100 ppm with Lucilia cuprina and in the test on Ctenocephalides felis [3] were 100% and 80%, respectively. In addition, in the test on Tetranychus urticae (application rate 20 g/ha), the pest or weed control at 20 g/ha came out at 90%. The same compound returned an efficacy with Musca domestica of 80%.

The values are drawn from patent US11083199B2, “Heterocycle derivatives as pesticides” (Bayer Aktiengesellschaft, priority 2017, dated 2021).
